The test has as its system P388 leukemia ip, CD2F1 mice, survival T/C. The test can be described thus: NCI In Vivo Anticancer Drug Screen. Data for tumor model P388 Leukemia (intraperitoneal) in CD2F1 (CDF1) mice. The settings on record: endpoint: median survival time, higher = longer survival. Summed up:
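Mice carrying the transplanted tumor received test compound or vehicle. Survival was recorded in each group, and the value is the treated-group measurement divided by that of the vehicle-treated control group.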

The mark [1] stands for this setting: dose: 100.0 mg/kg/injection, schedule: Q01DX009 (ip), vehicle: saline with Tween-80.
The mark [2] stands for this setting: dose: 200.0 mg/kg/injection, schedule: Q01DX009 (ip), vehicle: saline with Tween-80.
Where [3] appears, read: dose: 50.0 mg/kg/injection, schedule: Q01DX005 (ip), vehicle: saline with Tween-80.
[4] abbreviates: dose: 100.0 mg/kg/injection, schedule: Q01DX005 (ip), vehicle: saline with Tween-80.
Where [5] appears, read: dose: 200.0 mg/kg/injection, schedule: Q01DX005 (ip), vehicle: saline with Tween-80.
The mark [6] stands for this setting: dose: 50.0 mg/kg/injection, schedule: Q01DX009 (ip), vehicle: Klucel (hydroxypropylcellulose) (HPC).
[7] abbreviates: dose: 100.0 mg/kg/injection, schedule: Q01DX009 (ip), vehicle: Klucel (hydroxypropylcellulose) (HPC).
Where [8] appears, read: dose: 200.0 mg/kg/injection, schedule: Q01DX009 (ip), vehicle: Klucel (hydroxypropylcellulose) (HPC).
The mark [9] stands for this setting: dose: 25.0 mg/kg/injection, schedule: Q01DX009 (ip), vehicle: Klucel (hydroxypropylcellulose) (HPC).
Setting [10] is: dose: 50.0 mg/kg/injection, schedule: Q01DX009 (ip), vehicle: saline with Tween-80.

Drawing on PubChem BioAssay AID330 (DTP/NCI, 2004), this text covers T/C for 24 compounds.

Values joined by “and” are separate entries in the source; they are usually repeats but may differ in a detail not shown here. Identical values can stand only once. Inconclusive results and toxic doses are left out.

Turning to `CCn1c(-c2ccccc2)nc(=S)c(C(=O)c2ccccc2)c1SC`, the T/C is, setting by setting: (dose: 100.0 mg/kg/injection, schedule: Q04DX003 (ip), vehicle: Klucel (hydroxypropylcellulose) (HPC)) 98 % of control; (dose: 200.0 mg/kg/injection, schedule: Q04DX003 (ip), vehicle: Klucel (hydroxypropylcellulose) (HPC)) 100 % of control; (dose: 400.0 mg/kg/injection, schedule: Q04DX003 (ip), vehicle: Klucel (hydroxypropylcellulose) (HPC)) 100 % of control.
For `NC(=O)C1CNCC(C(N)=O)C1` (stereo not drawn), the T/C was 100 % of control and 98 % of control (dose: 50.0 mg/kg/injection, schedule: Q01DX009 (ip), vehicle: saline); 98 % of control (dose: 100.0 mg/kg/injection, schedule: Q01DX009 (ip), vehicle: saline); 99 % of control (dose: 200.0 mg/kg/injection, schedule: Q01DX009 (ip), vehicle: saline).
As for `CCOC(=O)C1=C(C)OC(C)(OC(C)=O)C1=O` (stereo not drawn), the T/C is, setting by setting: (dose: 50.0 mg/kg/injection, schedule: Q01DX005 (ip), vehicle: saline) 90 % of control; (dose: 100.0 mg/kg/injection, schedule: Q01DX005 (ip), vehicle: saline) 103 % of control; (dose: 200.0 mg/kg/injection, schedule: Q01DX005 (ip), vehicle: saline) 105 % of control.
Take `C=C(C)C1Cc2c(ccc3c2OC2COc4cc(OC)c(OC)cc4C2C3=O)O1` (stereo not drawn): the T/C runs as follows: under setting [1], 86 % of control; under setting [2], 95 % of control; (dose: 400.0 mg/kg/injection, schedule: Q01DX009 (ip), vehicle: saline with Tween-80) 95 % of control.
`CCOc1ccccc1C(=O)Nc1cc(C)nn1-c1ccccc1`: the T/C is, setting by setting: (dose: 100.0 mg/kg/injection, schedule: Q01DX001 (ip), vehicle: saline with Tween-80) 102 % of control; (dose: 200.0 mg/kg/injection, schedule: Q01DX001 (ip), vehicle: saline with Tween-80) 100 % of control; (dose: 400.0 mg/kg/injection, schedule: Q01DX001 (ip), vehicle: saline with Tween-80) 106 % of control.
With `CCOC(=O)c1cnc2c(OC)ccc(OC)c2c1Cl`, the T/C runs as follows: under setting [3], 97 % of control; under setting [4], 97 % of control; under setting [5], 99 % of control.
For `Nc1nc(Nc2ccc(C3=NCCN3)cc2)nc(Nc2ccc(C3=NCCN3)cc2)n1`, the T/C is 122 % of control (dose: 6.25 mg/kg/injection, schedule: Q01DX009 (ip), vehicle: saline) and 108 % of control (dose: 6.25 mg/kg/injection, schedule: Q01DX009 (ip), vehicle: suspension in saline).
Turning to `Cc1ccc([N+](=O)[O-])cc1O`, the T/C reads like this: (dose: 25.0 mg/kg/injection, schedule: Q01DX009 (ip), vehicle: other) 95 % of control; (dose: 50.0 mg/kg/injection, schedule: Q01DX009 (ip), vehicle: other) 100 % of control; (dose: 100.0 mg/kg/injection, schedule: Q01DX009 (ip), vehicle: other) 110 % of control.
For the compound `CC(C)(C)C(CO)CNc1ccccc1` (stereo not drawn), the T/C was 110 % of control under setting [6], 110 % of control under setting [7] and 107 % of control under setting [8].
Take `S=c1[nH]ccn1-c1ccccc1`: the T/C is, setting by setting: under setting [9], 99 % of control; under setting [6], 104 % of control; under setting [7], 109 % of control; under setting [8], 95 % of control.
With `C/C(=N\NC(=S)Nc1nccs1)c1nccc2ccccc12`, the T/C was 100 % of control under setting [3], 114 % of control under setting [4] and 122 % of control under setting [5].
Take `Nc1cccc(-c2nn[nH]n2)c1`: the T/C reads like this: under setting [3], 98 % of control; under setting [4], 102 % of control; under setting [5], 88 % of control.
Turning to `O=C(O)c1cc(C(=O)CCCCC(=O)c2cc(C(=O)O)c(O)c3ccccc23)c2ccccc2c1O`, the T/C is 90 % of control under setting [10], 90 % of control under setting [1] and 92 % of control under setting [2].
Take `CCOC(=O)N(C)C(C)Cc1ccccc1` (stereo not drawn): the T/C was 100 % of control under setting [10], 104 % of control under setting [1] and 108 % of control under setting [2].
Turning to `CCOC(=O)c1cccc(C(=O)OCC)c1`, the T/C by setting is: under setting [10], 99 % of control; under setting [1], 106 % of control; under setting [2], 108 % of control.
Turning to `CC(=O)Oc1cccc2c1ccc1nonc12`, the T/C was 88 % of control under setting [3], 88 % of control under setting [4] and 88 % of control under setting [5].
On to `N#Cc1nc(CC(=O)c2ccccn2)c(CC(=O)c2ccccn2)nc1C#N`, for which the T/C was 111 % of control (dose: 60.0 mg/kg/injection, schedule: Q01DX005 (ip), vehicle: saline with Tween-80) and 93 % of control (dose: 120.0 mg/kg/injection, schedule: Q01DX005 (ip), vehicle: saline with Tween-80).
Take `O=[N+]([O-])c1ccccc1OCC1CO1` (stereo not drawn): the T/C reads like this: under setting [9], 106 % of control; under setting [6], 105 % of control; under setting [7], 105 % of control.
As for `CCOC(=O)N1CCC23C=C(OC)C(=O)C=C2C1Cc1ccc(OC)c(O)c13` (stereo not drawn), the T/C reads like this: (dose: 100.0 mg/kg/injection, schedule: Q04DX002 (ip), vehicle: saline with Tween-80) 100 % of control; (dose: 200.0 mg/kg/injection, schedule: Q04DX002 (ip), vehicle: saline with Tween-80) 105 % of control; (dose: 400.0 mg/kg/injection, schedule: Q04DX002 (ip), vehicle: saline with Tween-80) 93 % of control.
For the compound `Nc1nc2nc(-c3ccccc3)nc(N)c2nc1C(=O)NN1CCCCC1`, the T/C by setting is: (dose: 37.5 mg/kg/injection, schedule: Q01DX009 (ip), vehicle: saline with Tween-80) 100 % of control; (dose: 75.0 mg/kg/injection, schedule: Q01DX009 (ip), vehicle: saline with Tween-80) 87 % of control; (dose: 150.0 mg/kg/injection, schedule: Q01DX009 (ip), vehicle: saline with Tween-80) 100 % of control.
Regarding `Cc1ccc2c(ccc3c[n+]4ccccc4c(C)c32)c1`, the T/C (dose: 2.2 mg/kg/injection, schedule: Q01DX009 (ip), vehicle: saline with Tween-80) is 122 % of control; the T/C (dose: 3.3 mg/kg/injection, schedule: Q01DX009 (ip), vehicle: saline with Tween-80) was 114 % of control; the T/C (dose: 5.0 mg/kg/injection, schedule: Q01DX009 (ip), vehicle: saline with Tween-80) was 122 % of control; the T/C (dose: 6.25 mg/kg/injection, schedule: Q04DX003 (ip), vehicle: other) was 112 % of control; the T/C (dose: 7.5 mg/kg/injection, schedule: Q01DX009 (ip), vehicle: saline with Tween-80) is 120 % of control; the T/C (dose: 12.5 mg/kg/injection, schedule: Q04DX003 (ip), vehicle: other) was 112 % of control. For the setting “dose: 25.0 mg/kg/injection, schedule: Q04DX003 (ip), vehicle: other”, the T/C is 108 % of control.
On to `Nc1c(-c2nc3ccc(C4=NCCN4)cc3[nH]2)[nH]c2cc(-c3nc4ccc(C5=NCCN5)cc4[nH]3)ccc12`, for which the T/C reads like this: (dose: 50.0 mg/kg/injection, schedule: Q01DX005 (ip), vehicle: Klucel (hydroxypropylcellulose) (HPC)) 90 % of control; (dose: 100.0 mg/kg/injection, schedule: Q01DX005 (ip), vehicle: Klucel (hydroxypropylcellulose) (HPC)) 90 % of control.
Consider `Brc1cc(-c2ccccc2)no1`, for which the T/C runs as follows: under setting [6], 104 % of control; under setting [7], 111 % of control; under setting [8], 109 % of control.
Consider `CS(=O)(=O)Nc1ccc(Nc2c3ccccc3nc3cc(N)ccc23)cc1`, for which the T/C was 154 % of control (dose: 1.32 mg/kg/injection, schedule: Q04DX003 (ip), vehicle: saline); 167 % of control (dose: 1.78 mg/kg/injection, schedule: Q04DX003 (ip), vehicle: saline); 172 % of control (dose: 2.0 mg/kg/injection, schedule: Q04DX003 (ip), vehicle: saline); 158 % of control (dose: 2.66 mg/kg/injection, schedule: Q04DX003 (ip), vehicle: saline); 187 % of control (dose: 2.9 mg/kg/injection, schedule: Q04DX003 (ip), vehicle: saline); 181 % of control (dose: 3.0 mg/kg/injection, schedule: Q04DX003 (ip), vehicle: saline). The T/C is, setting by setting: (dose: 4.0 mg/kg/injection, schedule: Q04DX003 (ip), vehicle: saline) 155 % of control; (dose: 4.4 mg/kg/injection, schedule: Q04DX003 (ip), vehicle: saline) 204 % of control; (dose: 4.5 mg/kg/injection, schedule: Q04DX003 (ip), vehicle: saline) 163 % of control; (dose: 6.0 mg/kg/injection, schedule: Q04DX003 (ip), vehicle: saline) 192 % of control; (dose: 6.6 mg/kg/injection, schedule: Q04DX003 (ip), vehicle: saline) 212 % of control; (dose: 10.0 mg/kg/injection, schedule: Q04DX003 (ip), vehicle: saline) 112 % of control.
